Measurements published in article PMC8157322, “Gd(III)–Pt(IV) theranostic contrast agents for tandem MR imaging and chemotherapy” (Chemical Science, 2020).

Assays:
[1] = T1/T2 relaxivity measurements in PBS; format: physicochemical; conditions: 37 °C
Method: The T1 relaxivity (r1) and T2 relaxivity (r2) of 1, GP1, and GP2 were measured at both low (1.41 T) and high (7 T) magnetic field strength in phosphate-buffered saline (PBS) to quantify how well they behave as MR contrast agents. […] The relaxivity values for 1 are well within the range of what is expected for a small molecule Gd(III) complex.[34] […] At 7 T, there was little change in r1 for both agents, while both r2 values increased, as expected. […]
solution. These capillaries were imaged using a Bruker PharmaScan 7 T MR imaging spectrometer (Bruker BioSpin, Billerica, MA, USA). T1 relaxation times were measured using a rapid-acquisition rapid-echo (RARE-VTR) T1-map pulse sequence with static TE (10 ms) and […]
parameters were as follows: field of view (FOV) = 25 x 25 mm2, matrix size (MTX) = 256 x 256, number of axial slices = 5, slice thickness (SI) = 1.0 mm, and averages (NEX) = 4. T1 analysis was carried out using the image sequence analysis tool in Paravision 5.0 pl2 software (Bruker, Billerica, MA, USA) with monoexponential curve-fitting of image intensities of selected regions of interest (ROIs) for each axial slice. […]
Fig. S2 Graph of r1 of (A) GP1 measured at 1.41 T (B) GP1 measured at 7 T (C) GP2 measured at 1.41 T
(D) GP2 measured at 7 T (E) 1 measured at 1.41 T (F) 1 measured at 7 T. All measurements were taken in PBS at 37 °C (G) 1 measured at 1.41 T with 5 mM GSH (H) GP1 measured at 1.41 T with 5 mM GSH and (I) GP2 measured at 1.41 T with 5 mM GSH.
Table S1. r1 of GP1, GP2, and 1 in PBS with 5 mM glutathione at 37 °C
GP1 (5 mM GSH) GP2 (5 mM GSH) 1 (5 mM GSH)

[2] = Aqueous solubility (qualitative); format: physicochemical; conditions: aqueous solutions / solvents
HeLa cells [3] = assay: MR imaging of cell pellets at 7 T; format: cell-based; conditions: 6 h incubation, cisplatin 15 μM, 1 100 μM, GP1 60 μM, GP2 250 μM
[4] = Stability in aqueous media monitored by HPLC-MS; format: physicochemical
Method: To ensure both agents remain stable in aqueous media under various conditions, they were dissolved in PBS, two types of cell culture media (MEM and RPMI-1640), pH 5 H2O, and porcine live esterase (PLE) in PBS and monitored over time by HPLC-MS. […]
Stability of GP1 and GP2 in various aqueous media. Aliquots of GP1 and GP2 were prepared from a stock with known mass checked by ICP-MS. An aliquot of each was dissolved in H2O and analyzed by HPLC-MS using an Atlantis C18 column (4.6 × 250 mm, 5 μm) and the following method: MeCN held at 0% for 3 min followed by a 15 min ramp to 100% MeCN (GP1 retention time: 10.9 min, GP2 retention time: 11.6 min). Aliquots of both were additionally dissolved in PBS, MEM, RPMI-1640, pH 5 H2O, PBS with 10 units/mL porcine liver esterase, 5 mM glutathione, and 5 mM sodium ascorbate, incubated in a shaker at 37 °C, and were analyzed by HPLC-MS at different time points using the same method. At each time point, the area of the peak of GP1 or GP2 was determined by integration and compared to the area of the peaks in […]

MCF-7 cells = assay: Cell viability assay (CellTiter-Glo 2.0); format: cell-based; conditions: MCF-7, 48 h incubation
Method: (§1) To assess the cytotoxicity of GP1 and GP2in vitro, cell viability assays were performed to determine the IC50 concentrations in three cancer cell lines (A2780, HeLa, and MCF-7). Table 2 summarizes the IC50 concentrations of both agents compared to those of cisplatin and carboplatin. […] For all cell lines, GP1 was less toxic than cisplatin but followed the same trend of highest toxicity in A2780 cells and least toxic in MCF-7 cells. GP1 releases cisplatin intracellularly, therefore the apparent difference in toxicity of the two is likely due to decreased cell permeability of GP1 caused by the Gd(III) complex. However, because GP1 is inert in the extracellular matrix, higher doses can be safely administered to account for the decreased cell permeability. […]
(§2) lines were grown in a humidified incubator at 37 °C and 5% CO2 and were harvested using 0.25% TrypLE. Cells were grown for 24 hours after plating before each experiment. All solutions were filtered through […] sterile filters before use.
(§3) Viability Assays. A2780, HeLa, and MCF-7 cells were plated at a density of 3,000 cells per well (100 µL) in an opaque white 96-well plate. Cells were dosed with 100 µL of solutions of GP1, GP2, cisplatin, or carboplatin in MEM and incubated for 48 hours (GP1 or cisplatin) or 72 hours (GP2 or carboplatin). After incubation, 50 µL CellTiter-Glo 2.0 (Promega, Madison, WI) was added to each well and the assay was carried out following the manufacturer’s protocol.
(§4) Luminescence of the wells was measured using a Synergy H1 microplate reader (BioTek, Winooski, VT). Viability was determined by comparing luminescence readings of the cells treated with agent to untreated control cells. […]

A2780 cells = assay: Cell viability assay (CellTiter-Glo 2.0); format: cell-based; conditions: A2780, 48 h incubation
Method: as §1, §2, §3, §4

HeLa cells [5] = assay: Cell viability assay (CellTiter-Glo 2.0); format: cell-based; conditions: 48 h incubation
Method: as §1, §2, §3, §4

- r1 (T1 relaxivity) ([1]; 1.41 T): 7.0 mM⁻¹ s⁻¹
- r1 (T1 relaxivity) ([1]; 7 T): 7.1 mM⁻¹ s⁻¹
- Solubility [2]: readily soluble in aqueous solutions
- Agent intact in MEM ([4]; MEM, 37 °C, at 48 hours): ≥ 92%
- Stability in PBS ([4]; PBS, 37 °C, over 48 hours): completely stable
- Agent reduced to Pt(II) in RPMI-1640 ([4]; RPMI-1640 (0.003 mM GSH), 37 °C, within 48 hours): 33%
- Agent intact in RPMI-1640 ([4]; RPMI-1640, 37 °C, at 6 hours): ≥ 96%
- Stability in pH 5 H2O ([4]; pH 5 H2O, 37 °C, over 48 hours): completely stable
- IC50 (MCF-7 cells): 113 ± 4 µM
- IC50 (A2780 cells): 29.8 ± 2.5 µM
- IC50 (HeLa cells [5]): 49.3 ± 1.3 µM
SMILES: [NH2][Pt]([NH2])([OH])([Cl])([Cl])[O]C(=O)CCCCCN1CCN2CCN3CCN(CC1)CC(=O)[O][Gd]([O]C(=O)C2)[O]C(=O)C3 [GP1]
- T1 of cell pellet (HeLa cells [3]): 1557 ± 17 ms
- Δ R1 (increase in R1 vs untreated control) (HeLa cells [3]): 48%
